From patent publication US4965280A, “Antifungal carbinols” (E. I. Du Pont de Nemours and Company, priority 1989, dated 1990)

How the values were obtained:
Test in all cases: Test E
WILD OATS = format: in vivo, Avena fatua
WILD BUCKWHEAT = format: in vivo, Polygonum convolvulus
ITALN. RYEGRASS = format: in vivo, Lolium multiflorum
LAMBSQUARTER = format: in vivo, Chenopodium album
PARK WHEAT = format: in vivo, Triticum aestivum cv. Park
KOCHIA = format: in vivo, Kochia scoparia
SNTLS CHAMOMILE = format: in vivo, Matricaria indora
REDROOT PIGWEED = format: in vivo, Amaranthus retroflexus
CTCHWD BEDSTRAW = format: in vivo, Galium aparine

`C=C(c1ccc(F)cc1)C(O)(Cn1cncn1)c1ccc(F)cc1F` (stereo not drawn) [Example 4, 2-(2,4-Difluorophenyl)-3-(4-fluorophenyl)-1-(1H-1,2,4-triazol-1-yl)-3-buten-2-ol] was tested, and the plant response (WILD OATS; POSTEMERGENCE 0064 GM/HA) was 0%, the plant response (WILD OATS; POSTEMERGENCE 0125 GM/HA) was 0% and the plant response (WILD OATS; POSTEMERGENCE 0250 GM/HA) was 0%. It also gave a plant response (WILD OATS; POSTEMERGENCE 0500 GM/HA) of 30%, a plant response (WILD OATS; PREEMERGENCE 0500 GM/HA) of 90% and a plant response (WILD BUCKWHEAT; POSTEMERGENCE 0064 GM/HA) of 0%. The plant response (WILD BUCKWHEAT; POSTEMERGENCE 0125 GM/HA) was 0%, the plant response (WILD BUCKWHEAT; POSTEMERGENCE 0250 GM/HA) was 40% and the plant response (WILD BUCKWHEAT; POSTEMERGENCE 0500 GM/HA) was 70%. It also gave a plant response (WILD BUCKWHEAT; PREEMERGENCE 0500 GM/HA) of 40%, a plant response (ITALN. RYEGRASS; POSTEMERGENCE 0064 GM/HA) of 0% and a plant response (ITALN. RYEGRASS; POSTEMERGENCE 0125 GM/HA) of 0%. The plant response (ITALN. RYEGRASS; POSTEMERGENCE 0250 GM/HA) was 30%, the plant response (ITALN. RYEGRASS; POSTEMERGENCE 0500 GM/HA) was 80% and the plant response (ITALN. RYEGRASS; PREEMERGENCE 0500 GM/HA) was 70%. It also gave a plant response (LAMBSQUARTER; POSTEMERGENCE 0064 GM/HA) of 0%, a plant response (LAMBSQUARTER; POSTEMERGENCE 0125 GM/HA) of 20% and a plant response (LAMBSQUARTER; POSTEMERGENCE 0250 GM/HA) of 20%. It also gave a plant response (LAMBSQUARTER; POSTEMERGENCE 0500 GM/HA) of 70%, a plant response (LAMBSQUARTER; PREEMERGENCE 0500 GM/HA) of 100% and a plant response (PARK WHEAT; POSTEMERGENCE 0064 GM/HA) of 0%. For the same compound, the plant response (PARK WHEAT; POSTEMERGENCE 0125 GM/HA) was 10%, the plant response (PARK WHEAT; POSTEMERGENCE 0250 GM/HA) was 30% and the plant response (PARK WHEAT; POSTEMERGENCE 0500 GM/HA) was 50%. For the same compound, the plant response (PARK WHEAT; PREEMERGENCE 0500 GM/HA) was 80%, the plant response (KOCHIA; POSTEMERGENCE 0064 GM/HA) was 0% and the plant response (KOCHIA; POSTEMERGENCE 0125 GM/HA) was 30%. The plant response (KOCHIA; POSTEMERGENCE 0250 GM/HA) was 70%, the plant response (KOCHIA; POSTEMERGENCE 0500 GM/HA) was 90% and the plant response (KOCHIA; PREEMERGENCE 0500 GM/HA) was 100%. For the same compound, the plant response (SNTLS CHAMOMILE; POSTEMERGENCE 0064 GM/HA) was 30%, the plant response (SNTLS CHAMOMILE; POSTEMERGENCE 0125 GM/HA) was 50% and the plant response (SNTLS CHAMOMILE; POSTEMERGENCE 0250 GM/HA) was 70%. It also gave a plant response (SNTLS CHAMOMILE; POSTEMERGENCE 0500 GM/HA) of 85%, a plant response (SNTLS CHAMOMILE; PREEMERGENCE 0500 GM/HA) of 100% and a plant response (REDROOT PIGWEED; POSTEMERGENCE 0064 GM/HA) of 20%. The plant response (REDROOT PIGWEED; POSTEMERGENCE 0125 GM/HA) was 40%, the plant response (REDROOT PIGWEED; POSTEMERGENCE 0250 GM/HA) was 90% and the plant response (REDROOT PIGWEED; POSTEMERGENCE 0500 GM/HA) was 90%. It also gave a plant response (REDROOT PIGWEED; PREEMERGENCE 0500 GM/HA) of 100%, a plant response (CTCHWD BEDSTRAW; POSTEMERGENCE 0064 GM/HA) of 20% and a plant response (CTCHWD BEDSTRAW; POSTEMERGENCE 0125 GM/HA) of 20%. The plant response (CTCHWD BEDSTRAW; POSTEMERGENCE 0250 GM/HA) was 80%, the plant response (CTCHWD BEDSTRAW; POSTEMERGENCE 0500 GM/HA) was 100% and the plant response (CTCHWD BEDSTRAW; PREEMERGENCE 0500 GM/HA) was 100%.

`C=C(c1ccc(Cl)cc1Cl)C(O)(Cn1cncn1)c1ccccc1F` (stereo not drawn) [Example 107] showed a plant response (WILD OATS; PREEMERGENCE 0250 GM/HA) of 0%, a plant response (WILD BUCKWHEAT; PREEMERGENCE 0250 GM/HA) of 0% and a plant response (ITALN. RYEGRASS; PREEMERGENCE 0250 GM/HA) of 0%. The plant response (LAMBSQUARTER; PREEMERGENCE 0250 GM/HA) was 90%, the plant response (PARK WHEAT; PREEMERGENCE 0250 GM/HA) was 30% and the plant response (KOCHIA; PREEMERGENCE 0250 GM/HA) was 0%. It also gave a plant response (SNTLS CHAMOMILE; PREEMERGENCE 0250 GM/HA) of 70%, a plant response (REDROOT PIGWEED; PREEMERGENCE 0250 GM/HA) of 100% and a plant response (CTCHWD BEDSTRAW; PREEMERGENCE 0250 GM/HA) of 0%.

Compound `C=C(c1ccc(F)cc1)C(O)(Cn1cncn1)c1ccccc1F` (stereo not drawn) [Example 644] has a plant response (WILD OATS; POSTEMERGENCE 0064 GM/HA) of 0%, a plant response (WILD OATS; POSTEMERGENCE 0125 GM/HA) of 0% and a plant response (WILD OATS; POSTEMERGENCE 0250 GM/HA) of 20%. It also gave a plant response (WILD OATS; POSTEMERGENCE 0500 GM/HA) of 20%, a plant response (WILD OATS; PREEMERGENCE 0500 GM/HA) of 20% and a plant response (WILD BUCKWHEAT; POSTEMERGENCE 0064 GM/HA) of 0%. The plant response (WILD BUCKWHEAT; POSTEMERGENCE 0125 GM/HA) was 0%, the plant response (WILD BUCKWHEAT; POSTEMERGENCE 0250 GM/HA) was 0% and the plant response (WILD BUCKWHEAT; POSTEMERGENCE 0500 GM/HA) was 0%. For the same compound, the plant response (WILD BUCKWHEAT; PREEMERGENCE 0500 GM/HA) was 30%, the plant response (ITALN. RYEGRASS; POSTEMERGENCE 0064 GM/HA) was 0% and the plant response (ITALN. RYEGRASS; POSTEMERGENCE 0125 GM/HA) was 20%. For the same compound, the plant response (ITALN. RYEGRASS; POSTEMERGENCE 0250 GM/HA) was 50%, the plant response (ITALN. RYEGRASS; POSTEMERGENCE 0500 GM/HA) was 40% and the plant response (ITALN. RYEGRASS; PREEMERGENCE 0500 GM/HA) was 0%. It also gave a plant response (LAMBSQUARTER; POSTEMERGENCE 0064 GM/HA) of 0%, a plant response (LAMBSQUARTER; POSTEMERGENCE 0125 GM/HA) of 0% and a plant response (LAMBSQUARTER; POSTEMERGENCE 0250 GM/HA) of 20%. The plant response (LAMBSQUARTER; POSTEMERGENCE 0500 GM/HA) was 40%, the plant response (LAMBSQUARTER; PREEMERGENCE 0500 GM/HA) was 85% and the plant response (PARK WHEAT; POSTEMERGENCE 0064 GM/HA) was 0%. It also gave a plant response (PARK WHEAT; POSTEMERGENCE 0125 GM/HA) of 20%, a plant response (PARK WHEAT; POSTEMERGENCE 0250 GM/HA) of 30% and a plant response (PARK WHEAT; POSTEMERGENCE 0500 GM/HA) of 40%. It also gave a plant response (PARK WHEAT; PREEMERGENCE 0500 GM/HA) of 30%, a plant response (KOCHIA; POSTEMERGENCE 0064 GM/HA) of 0% and a plant response (KOCHIA; POSTEMERGENCE 0125 GM/HA) of 0%. For the same compound, the plant response (KOCHIA; POSTEMERGENCE 0250 GM/HA) was 50%, the plant response (KOCHIA; POSTEMERGENCE 0500 GM/HA) was 70% and the plant response (KOCHIA; PREEMERGENCE 0500 GM/HA) was 100%. The plant response (SNTLS CHAMOMILE; POSTEMERGENCE 0064 GM/HA) was 20%, the plant response (SNTLS CHAMOMILE; POSTEMERGENCE 0125 GM/HA) was 50% and the plant response (SNTLS CHAMOMILE; POSTEMERGENCE 0250 GM/HA) was 50%. The plant response (SNTLS CHAMOMILE; POSTEMERGENCE 0500 GM/HA) was 90%, the plant response (SNTLS CHAMOMILE; PREEMERGENCE 0500 GM/HA) was 100% and the plant response (REDROOT PIGWEED; POSTEMERGENCE 0064 GM/HA) was 50%. For the same compound, the plant response (REDROOT PIGWEED; POSTEMERGENCE 0125 GM/HA) was 50%, the plant response (REDROOT PIGWEED; POSTEMERGENCE 0250 GM/HA) was 50% and the plant response (REDROOT PIGWEED; POSTEMERGENCE 0500 GM/HA) was 60%. It also gave a plant response (REDROOT PIGWEED; PREEMERGENCE 0500 GM/HA) of 80%, a plant response (CTCHWD BEDSTRAW; POSTEMERGENCE 0064 GM/HA) of 0% and a plant response (CTCHWD BEDSTRAW; POSTEMERGENCE 0125 GM/HA) of 30%. For the same compound, the plant response (CTCHWD BEDSTRAW; POSTEMERGENCE 0250 GM/HA) was 30%, the plant response (CTCHWD BEDSTRAW; POSTEMERGENCE 0500 GM/HA) was 30% and the plant response (CTCHWD BEDSTRAW; PREEMERGENCE 0500 GM/HA) was 0%.
